The record followed here is US9592221B2, “Antibacterial agents: aryl myxopyronin derivatives” (priority 2012, dated 2017).

One assay concerns Burkholderia mallei CHN7. Description: microbe, parasite or virus in culture. It is filed as cell-based. To be noted: Burkholderia mallei, CHN7, read-out: MIC B. mallei CHN7.
Assay [1] relates to Bacillus anthracis Vollum 1b. Description: microbe, parasite or virus in culture. The assay is classed as cell-based. The following applies: Bacillus anthracis, VOLLUM1B, read-out: MIC B. anthracis Vollum-1b.
For assay [2], the target named is M. tuberculosis RNA polymerase core enzyme, M. tuberculosis σ^A (Mycobacterium tuberculosis, UniProt P9WGY7+P9WGY9). Kind of assay: Fluorescence-detected RNA polymerase assay, M. tuberculosis RNA polymerase. It is filed as biochemical. To be noted: read-out: IC50 M. tuberculosis RNAP.
The test system of assay [3] is Burkholderia pseudomallei Human/Blood/OH/US/1994. Description: microbe, parasite or virus in culture. The assay is classed as cell-based. The following applies: Burkholderia pseudomallei, read-out: MIC B. pseudomallei Human/Blood/OH.
The next assay relates to Brucella melitensis 16M. Description: microbe, parasite or virus in culture. To be noted: Brucella melitensis, 16M, read-out: MIC B. melitensis 16M. It is filed as cell-based.
Assay [4] relates to Francisella tularensis SCHU4. Description: microbe, parasite or virus in culture. To be noted: Francisella tularensis, SCHU4, read-out: MIC F. tularensis SCHU4. It is filed as cell-based.
The next assay has as its system Yersinia pestis C092. Description: microbe, parasite or virus in culture. It is filed as cell-based. To be noted: Yersinia pestis, C092, read-out: MIC Y. pestis C092.
For assay [5], the system named is Acinetobacter baumannii ATCC 19606. Kind of assay: MIC, spiral gradient endpoint assay, A. baumannii. The assay is classed as cell-based. The following applies: ATCC19606; Acinetobacter baumannii ATCC 19606.
The target in assay [6] is E. coli RNA polymerase σ^70 holoenzyme (Escherichia coli, UniProt P0A8T7+P0A8V2). Description: Fluorescence-detected RNA polymerase assay, E. coli RNA polymerase. The assay is classed as biochemical. To be noted: read-out: IC50 E. coli RNAP.
The test system of assay [7] is Mycobacterium tuberculosis H37Rv. Description: MIC, microplate Alamar Blue assay, M. tuberculosis. It is filed as cell-based.
Assay [8] deals with Escherichia coli D21f2tolC. Description: MIC, spiral gradient endpoint assay, E. coli D21f2tolC. It is filed as cell-based. To be noted: Escherichia coli, D21F2TOLC, read-out: MIC E. coli D21f2toIC.
Assay [9] has as its system Staphylococcus aureus ATCC 12600. Kind of assay: MIC, spiral gradient endpoint assay, S. aureus ATCC 12600. The assay is classed as cell-based. The following applies: ATCC12600; Staphylococcus aureus ATCC 12600.
Assay [10] deals with S. aureus RNA polymerase core enzyme, S. aureus σ^A (Staphylococcus aureus, UniProt P47768+Q2G0N5). Kind of assay: Fluorescence-detected RNA polymerase assay, S. aureus RNA polymerase. The assay is classed as biochemical. The following applies: read-out: IC50 S. aureus RNAP.

Sequence of M. tuberculosis RNA polymerase core enzyme, M. tuberculosis σ^A (P9WGI1 whole entry): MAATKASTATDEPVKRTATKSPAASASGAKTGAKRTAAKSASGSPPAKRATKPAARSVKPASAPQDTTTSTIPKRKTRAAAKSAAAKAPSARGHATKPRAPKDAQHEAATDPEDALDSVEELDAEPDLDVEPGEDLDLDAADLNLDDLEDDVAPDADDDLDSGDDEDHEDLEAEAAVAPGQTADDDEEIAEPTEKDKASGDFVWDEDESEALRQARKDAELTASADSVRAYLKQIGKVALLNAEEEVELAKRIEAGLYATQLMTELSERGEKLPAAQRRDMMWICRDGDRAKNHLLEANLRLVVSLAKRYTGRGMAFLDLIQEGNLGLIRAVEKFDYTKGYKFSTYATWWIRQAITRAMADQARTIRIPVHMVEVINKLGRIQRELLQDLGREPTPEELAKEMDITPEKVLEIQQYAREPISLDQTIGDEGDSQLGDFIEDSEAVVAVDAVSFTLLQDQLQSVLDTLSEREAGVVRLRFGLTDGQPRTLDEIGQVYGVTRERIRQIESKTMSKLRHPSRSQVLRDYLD
Sequence of M. tuberculosis RNA polymerase core enzyme, M. tuberculosis σ^A (P9WGY5 whole entry, further chain): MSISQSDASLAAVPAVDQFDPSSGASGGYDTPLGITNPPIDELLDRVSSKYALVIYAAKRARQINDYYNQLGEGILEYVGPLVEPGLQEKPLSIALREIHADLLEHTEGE
Sequence of M. tuberculosis RNA polymerase core enzyme, M. tuberculosis σ^A (P9WGY7 whole entry): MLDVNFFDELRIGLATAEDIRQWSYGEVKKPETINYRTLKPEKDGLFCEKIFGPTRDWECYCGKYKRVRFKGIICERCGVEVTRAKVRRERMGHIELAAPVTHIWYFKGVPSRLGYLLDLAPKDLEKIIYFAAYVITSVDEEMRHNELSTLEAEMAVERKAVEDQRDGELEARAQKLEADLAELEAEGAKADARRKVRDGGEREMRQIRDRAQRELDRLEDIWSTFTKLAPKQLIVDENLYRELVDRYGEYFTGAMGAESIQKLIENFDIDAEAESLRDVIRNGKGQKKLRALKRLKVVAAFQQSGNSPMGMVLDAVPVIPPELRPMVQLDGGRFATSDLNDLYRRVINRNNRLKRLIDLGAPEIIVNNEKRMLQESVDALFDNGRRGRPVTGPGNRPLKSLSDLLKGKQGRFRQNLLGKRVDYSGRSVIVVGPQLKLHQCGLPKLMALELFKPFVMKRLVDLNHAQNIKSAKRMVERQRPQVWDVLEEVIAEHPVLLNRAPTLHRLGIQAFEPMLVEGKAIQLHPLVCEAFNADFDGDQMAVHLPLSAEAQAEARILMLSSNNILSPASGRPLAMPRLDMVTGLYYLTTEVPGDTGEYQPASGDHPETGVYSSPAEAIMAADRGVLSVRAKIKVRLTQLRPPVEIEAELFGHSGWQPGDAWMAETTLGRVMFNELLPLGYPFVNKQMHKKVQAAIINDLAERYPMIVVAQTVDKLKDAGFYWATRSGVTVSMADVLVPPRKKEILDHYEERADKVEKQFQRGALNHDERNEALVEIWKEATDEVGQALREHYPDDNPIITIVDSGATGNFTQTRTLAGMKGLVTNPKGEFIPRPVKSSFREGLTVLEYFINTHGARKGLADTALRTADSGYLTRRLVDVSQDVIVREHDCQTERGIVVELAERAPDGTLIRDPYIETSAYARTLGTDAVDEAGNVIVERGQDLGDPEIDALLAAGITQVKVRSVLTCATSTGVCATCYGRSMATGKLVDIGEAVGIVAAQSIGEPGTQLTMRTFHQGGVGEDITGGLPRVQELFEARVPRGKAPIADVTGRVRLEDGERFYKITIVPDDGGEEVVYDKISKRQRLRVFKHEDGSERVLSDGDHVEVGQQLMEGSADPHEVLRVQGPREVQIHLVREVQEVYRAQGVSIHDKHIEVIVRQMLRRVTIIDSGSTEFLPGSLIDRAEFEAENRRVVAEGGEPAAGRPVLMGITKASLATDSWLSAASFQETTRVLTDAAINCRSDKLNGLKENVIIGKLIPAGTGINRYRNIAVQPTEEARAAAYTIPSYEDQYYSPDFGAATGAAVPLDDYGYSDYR
Sequence of M. tuberculosis RNA polymerase core enzyme, M. tuberculosis σ^A (P9WGY9 whole entry): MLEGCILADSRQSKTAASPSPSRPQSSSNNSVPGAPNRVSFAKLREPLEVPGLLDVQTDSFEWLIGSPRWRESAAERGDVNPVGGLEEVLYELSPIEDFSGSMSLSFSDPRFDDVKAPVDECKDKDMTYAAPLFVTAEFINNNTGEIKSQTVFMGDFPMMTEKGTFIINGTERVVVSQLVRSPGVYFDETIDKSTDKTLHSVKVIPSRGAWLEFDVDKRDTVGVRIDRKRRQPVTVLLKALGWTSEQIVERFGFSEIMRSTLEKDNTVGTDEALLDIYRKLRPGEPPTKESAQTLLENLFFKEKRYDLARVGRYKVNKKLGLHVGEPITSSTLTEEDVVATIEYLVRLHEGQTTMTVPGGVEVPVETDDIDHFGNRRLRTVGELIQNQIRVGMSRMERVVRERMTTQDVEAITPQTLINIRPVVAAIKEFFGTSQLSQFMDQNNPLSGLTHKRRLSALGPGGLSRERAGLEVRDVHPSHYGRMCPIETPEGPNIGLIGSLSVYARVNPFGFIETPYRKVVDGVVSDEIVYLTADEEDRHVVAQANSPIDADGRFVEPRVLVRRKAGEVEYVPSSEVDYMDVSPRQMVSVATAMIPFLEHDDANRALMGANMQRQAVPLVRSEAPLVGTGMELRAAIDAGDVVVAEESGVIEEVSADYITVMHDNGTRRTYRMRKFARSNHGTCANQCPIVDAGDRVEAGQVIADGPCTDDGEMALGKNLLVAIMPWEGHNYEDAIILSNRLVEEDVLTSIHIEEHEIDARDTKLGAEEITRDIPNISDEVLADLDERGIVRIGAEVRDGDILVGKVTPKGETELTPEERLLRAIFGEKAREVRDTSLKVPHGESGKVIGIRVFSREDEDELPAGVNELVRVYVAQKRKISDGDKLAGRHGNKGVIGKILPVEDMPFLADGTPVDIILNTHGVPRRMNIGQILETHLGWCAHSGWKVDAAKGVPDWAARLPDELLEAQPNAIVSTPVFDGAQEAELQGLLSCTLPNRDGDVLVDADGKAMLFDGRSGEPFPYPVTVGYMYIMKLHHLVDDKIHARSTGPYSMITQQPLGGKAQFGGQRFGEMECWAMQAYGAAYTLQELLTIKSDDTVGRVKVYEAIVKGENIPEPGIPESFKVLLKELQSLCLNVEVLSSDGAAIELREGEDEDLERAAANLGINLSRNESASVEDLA
Sequence of M. tuberculosis RNA polymerase core enzyme, M. tuberculosis σ^A (P9WGZ1 whole entry, further chain): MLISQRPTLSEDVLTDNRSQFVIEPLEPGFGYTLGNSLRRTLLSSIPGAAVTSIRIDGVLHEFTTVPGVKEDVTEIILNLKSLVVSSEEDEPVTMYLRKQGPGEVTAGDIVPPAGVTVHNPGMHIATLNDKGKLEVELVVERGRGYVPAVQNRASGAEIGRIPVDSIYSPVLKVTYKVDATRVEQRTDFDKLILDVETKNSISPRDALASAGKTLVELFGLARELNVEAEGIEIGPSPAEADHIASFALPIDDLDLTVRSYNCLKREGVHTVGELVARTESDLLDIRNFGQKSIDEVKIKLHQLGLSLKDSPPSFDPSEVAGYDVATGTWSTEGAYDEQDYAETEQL

Take `C=CCCCCc1ccc(C=C(C)C(=O)c2c(O)cc(C(C)CC/C=C/NC(=O)OC)oc2=O)s1` (mixture of isomers) [APY29, methyl (E)-5-(3-((E/Z)-3-(5-(hex-5-enyl)thiophen-2-yl)-2-methylacryloyl)-4-hydroxy-2-oxo-2H-pyran-6-yl)hex-1-enylcarbamate]: the MIC in the assay with Burkholderia mallei CHN7 worked out at 3 µg/mL; in [1], 3 µg/mL; in [3], 10 µg/mL; with Brucella melitensis 16M it was 0.8 µg/mL; in assay [4], 10 µg/mL; with Yersinia pestis C092, 10 µg/mL. Moreover, the MIC worked out at 30 µg/mL in assay [5], 30 µg/mL in assay [7], 0.3 µg/mL in assay [8] and 4 µg/mL in assay [9]. The IC50 in [2] amounted to 500 nM; in [6], 40 nM; in [10], 90 nM.

In the case of `CCCCc1ccc(C=C(CC)C(=O)c2c(O)cc(C(C)CC/C=C/NC(=O)OC)oc2=O)s1` (mixture of isomers) [APY21, methyl (E)-5-(3-((E/Z)-2-((5-butylthiophen-2-yl)methylene)butanoyl)-4-hydroxy-2-oxo-2H-pyran-6-yl)hex-1-enylcarbamate], the MIC in the assay with Burkholderia mallei CHN7 is 6 µg/mL; in assay [1], 3 µg/mL; in assay [3] it was 10 µg/mL; in the assay on Brucella melitensis 16M it was 2 µg/mL; in assay [4], 3 µg/mL; in the assay with Yersinia pestis C092 it was over 50 µg/mL. For the same compound, the MIC worked out at 20 µg/mL in [5], 10 µg/mL in assay [7], 0.3 µg/mL in [8] and 2 µg/mL in assay [9]. Moreover, the 50% inhibitory concentration (IC50) in [2] was 300 nM; in assay [6], 40 nM; in assay [10] it was 500 nM.

Consider `CCCCCCc1csc(C=C(C)C(=O)c2c(O)cc(C(C)CC/C=C/NC(=O)OC)oc2=O)c1C` (mixture of isomers) [APY27, methyl (E)-5-(3-((E/Z)-3-(4-hexyl-3-methylthiophen-2-yl)-2-methylacryloyl)-4-hydroxy-2-oxo-2H-pyran-6-yl)hex-1-enylcarbamate], for which the MIC in the assay on Burkholderia mallei CHN7 was 6 µg/mL; in assay [1], 3 µg/mL; in [3], 50 µg/mL; in the assay on Brucella melitensis 16M, 2 µg/mL; in assay [4], 3 µg/mL; in the assay on Yersinia pestis C092, over 50 µg/mL. In addition, the MIC in [5] was 20 µg/mL; in assay [7], 10 µg/mL; in assay [8] it was 0.3 µg/mL; in assay [9], 6 µg/mL. In addition, the values for the IC50 in [2], in assay [6] and in assay [10] were 1000 nM, 10 nM and 100 nM, respectively.

`CCCCCCc1ccc2oc(C=C(C)C(=O)c3c(O)cc(C(C)CC/C=C/NC(=O)OC)oc3=O)cc2c1` (mixture of isomers) [APY20, methyl (E)-5-(3-((E/Z)-3-(5-hexylbenzofuran-2-yl)-2-methylacryloyl)-4-hydroxy-2-oxo-2H-pyran-6-yl)hex-1-enylcarbamate]: the MIC is 2 µg/mL in the assay with Burkholderia mallei CHN7; 2 µg/mL in [1]; over 50 µg/mL in assay [3]; 0.8 µg/mL with Brucella melitensis 16M; 0.8 µg/mL in assay [4]; over 50 µg/mL with Yersinia pestis C092. Moreover, the MIC is over 40 µg/mL in assay [5], 6 µg/mL in [7], 0.3 µg/mL in [8] and over 40 µg/mL in [9]. Moreover, the IC50 in assay [2] was 300 nM; in assay [6], 4 nM; in assay [10], 20 nM.

In the case of `COC(=O)N/C=C/CCC(C)c1cc(O)c(C(=O)C(C)=Cc2sc(CCC(C)C)cc2C)c(=O)o1` (mixture of isomers) [APY76, methyl (E)-5-(3-((E/Z)-3-(5-isopentyl-3-methylthiophen-2-yl)-2-methylacryloyl)-4-hydroxy-2-oxo-2H-pyran-6-yl)hex-1-enylcarbamate], the MIC with Burkholderia mallei CHN7 is 6 µg/mL; in assay [1] it was 0.4 µg/mL; in assay [3] it was 6 µg/mL; with Brucella melitensis 16M, 3 µg/mL; in [4], 10 µg/mL; in assay [5] it was 4 µg/mL. The MIC in assay [7] came out at 30 µg/mL; in [8] it was 0.09 µg/mL; in assay [9], 0.2 µg/mL. For the same compound, the concentration for half-maximal inhibition (IC50) worked out at 50 nM in [2], 3 nM in assay [6] and 80 nM in assay [10].
